# Data published in patent US5798365A, “Substituted quinoline derivatives, a process for their preparation, and their use” (Hoechst Aktiengesellschaft, priority 1994, dated 1998).
# Where two headings read alike, the source gives them in different places.
# Experiments:
# HIV = experiment: Testing preparations against HIV in cell culture (infected human donor lymphocytes); assay type: cell-based; details: for MIC: Human immunodeficiency virus 1, 72 h, lowest concentration without giant cells; for IC50: Human immunodeficiency virus 1, Lymphocyte, 72 h
# Method: Testing preparations against HIV in cell culture
# Description of the method
# The complete medium additionally contains 20% foetal calf serum and 40 IU/ml recombinant interleukin 2.
# Lymphocytes which have been isolated from fresh donor blood by means of Ficoll® gradient centrifugation are cultured, at 37° C. for 36 h and under 5% CO2, in complete medium in the added presence of […] phytohemagglutinin (Wellcome). After the addition of 10% DMSO, the cells are frozen at a cell density of 5×10^6 and stored in liquid nitrogen. For the experiment, the cells are thawed, washed in RPMI medium and cultured for 3-4 days in complete medium.
# The preparations for testing were dissolved in DMSO at a concentration of 16.7 mg/ml and diluted to 1 mg/ml in complete medium. 0.4 ml of medium was initially introduced in 24-well multiwell plates. After 0.1 ml of the dissolved preparation had been added to the upper row of the plate, a geometrical dilution series was produced by transferring 0.1 ml on each occasion. Preparation-free controls always contained 0.4 ml of complete medium containing 0.5% DMSO.
# Lymphocyte cultures having a cell count of 5×10^5 cells/ml were infected by adding a 1/50 volume of the supernatant from lymphocyte cultures infected with HIV. The titer of these culture supernatants was determined, by end point dilution, to be 1-5×10^6 infectious units/ml. After incubating at 37° C. for 30 min, the infected lymphocytes were centrifuged off and taken up once again in the same volume of medium. 0.6 ml of this cell suspension was added to each of the wells in the test plate. The assay mixtures were incubated at 37° C. for 3 days.
# The infected cell cultures were examined under the microscope for the presence of giant cells, which indicate that the virus is multiplying actively in the culture. The lowest preparation concentration at which no giant cells appeared was defined as the inhibitory concentration against HIV (MIC value). As a control, the presence of HIV antigen in the supernatants from the culture plates was determined using a test for HIV antigen in accordance with the manufacturer's (Organon) instructions.
# [1] = target: T1, HIV reverse transcriptase (Human immunodeficiency virus type 1 group M subtype B, UniProt P04585); experiment: Inhibition of HIV reverse transcriptase, scintillation proximity assay (SPA); assay type: biochemical; details: RT-SPA, 60 min, 37° C., read-out: Reverse Transcriptase Asaay IC-50 (converted)
# T1 construct: purchased HT-Biotechnology LTD, Cambridge, UK; host or cells: E. coli
# Method: Investigation of the ability of the substances to inhibit the HIV reverse transcriptase
# The activity of the reverse transcriptase (RT) was measured by means of a scintillation proximity assay (SPA).
# The reagent kit for the RT-SPA was obtained from Amersham/Buchler (Braunschweig). The RT enzyme (originating from HIV and cloned in E. coli) was provided by HT-Biotechnology LTD, Cambridge, UK.
# The test was carried out in accordance with the supplier's (Amersham) methods manual--with the following modifications:
# bovine serum albumin was added to the assay buffer to a final concentration of 0.5 mg/ml.
# The test was carried out in Eppendorf reaction tubes using a mixture volume of […].
# The supplier's RT concentrate (5000 U/ml) was diluted in 20 mM tris-HCl buffer; pH 7.2; 30% glycerol to an activity of 15 U/ml.
# The assay mixtures were incubated for 60 min (at 37° C.).
# After the reaction had been stopped and "developed" using the bead suspension, […] of assay mixture was transferred into 4.5 ml of 10 mM tris-HCl buffer; pH 7.4; 0.15M NaCl
# and the tritium activity was measured in a β counter.
# In order to carry out a preliminary test for inhibitor activity, the substances were dissolved in DMSO (stock solution concentration=1 mg/ml) and tested at 10^-1, 10^-2, 10^-3, etc. dilutions in DMSO.
# In order to determine the IC50 values, the stock solutions of inhibitor were further diluted in 50 mM tris-HCl buffer, pH 8, and tested at suitable concentrations.
# The concentration giving rise to 50% inhibition of the enzyme was ascertained from the graphic depiction of RT activity versus log Cinh.
# [2] = HIV-infected lymphocytes, 3 days, 37° C.
# [3] = HIV-infected lymphocytes, 3 days, 37° C., read-out: IC-50
Compound,MIC (HIV; [2]) [µg/mL],IC50 (HIV; [3]) [µg/mL],IC50 ([1]; molar value in parentheses) [nM],IC50 [1] [nM],IC50 (HIV) [µg/mL],"IC50 (HIV; HIV-infected lymphocytes, 3 days, unit as printed for compound 10, read-out: IC-50) [µg/mL]","IC50 ([1]; first value of compound 18, unit as printed) [nM]"
C=C1c2cc(Cl)ccc2NC(=S)C1(C)C [Compound 1],1,≥ 0.04,–,–,–,–,–
"CCCC=C1c2cc(Cl)ccc2NC(=O)C1(C)C [Compound 2, 4-n-Butylene-6-chloro-3,4-dihydro-3,3-dimethylquinolin-2(1H)-one]",0.1,~0.015,63,64.5,–,–,–
CCC=C1c2cc(Cl)ccc2NC(=O)C1(C)C [Compound 3],< 0.08,0.03,–,108,–,–,–
CCC=C1c2cc(Cl)ccc2NC(=S)C1(C)C [Compound 4],0.0016,< 0.00032,8,7.52,–,–,–
CCCC=C1c2ccccc2NC(=O)C12CCC2 [Compound 5],0.2,0.04,479,479,–,–,–
"CCCC=C1c2ccccc2NC(=O)C12CCCC2 [Compound 6, E/Z-4-n-butylene-3,3-cyclopentylidene-3,4-dihydroquinolin-2(1H)-one]",–,–,113,113,–,–,–
CCCC=C1c2ccccc2NC(=S)C12CCC2 [Compound 7],< 0.008,~0.00032,18,19.4,–,–,–
"CCCC=C1c2ccccc2NC(=S)C12CCCC2 [Compound 8, E/Z-4-n-butylene-3,3-cyclopentylidene-3,4-dihydroquinolin-2(1H)-thione]",0.008,–,16,14.7,0.0016,–,–
CC(C)=C1c2cc(Cl)ccc2NC(=S)C1(C)C [Compound 10],–,–,116,117,–,0.025,–
C=CC=C1c2cc(Cl)ccc2NC(=O)C1(C)C [Compound 13],> 0.2,0.04,–,–,–,–,–
C=CC=C1c2cc(Cl)ccc2NC(=S)C1(C)C [Compound 14],< 0.008,0.005,18,15.2,–,–,–
CCCCCC=C1c2cc(Cl)ccc2NC(=S)C1(C)C [Compound 16],< 0.2,~0.03,–,–,–,–,–
CC(C)C=C1c2cc(Cl)ccc2NC(=O)C1(C)C [Compound 17],< 0.02,~0.04,–,–,–,–,–
CC(C)C=C1c2cc(Cl)ccc2NC(=S)C1(C)C [Compound 18],< 0.008,0.002,55,–,–,–,54.3
CC(C)CC=C1c2cc(Cl)ccc2NC(=O)C1(C)C [Compound 19],–,0.008,37,37.1,–,–,–
CC(C)CC=C1c2cc(Cl)ccc2NC(=S)C1(C)C [Compound 20],< 0.008,0.0015,22,21.4,–,–,–
CC(C)C=C1c2ccccc2NC(=S)C1(C)C [Compound 24],–,–,270,270,–,–,–
CCCC=C1c2ccccc2NC(=S)C1(C)C [Compound 28],0.008,~0.01,24,23.6,–,–,–
C=CC=C1c2ccccc2NC(=S)C1(C)C [Compound 30],< 0.2,~0.02,–,–,–,–,–
CCCCCC=C1c2ccccc2NC(=S)C12CCC2 [Compound 32],0.2,~0.08,–,–,–,–,–
CC(C)C=C1c2ccccc2NC(=S)C12CCC2 [Compound 34],< 0.04,~0.01,–,–,–,–,–
CCCC=C1c2cc(OC(F)(F)F)ccc2NC(=S)C1(C)C [Compound 36],< 0.2,~0.01,–,–,–,–,–
CC=C1c2ccccc2NC(=S)C12CCCC2 [Compound 38],< 0.2,~0.08,–,–,–,–,–
